Among the targets are ABL1 (Homo sapiens, UniProt P00519); EphA5 (Homo sapiens, UniProt P54756); BRAF (Homo sapiens, UniProt P15056); CHK2 (Homo sapiens, UniProt O96017); CDK2 (Homo sapiens, UniProt P24941); AKT3 (Homo sapiens, UniProt Q9Y243).
Holding throughout (settings): binder
The next assay addresses T1, TTK (Homo sapiens, UniProt P33981).
T1 sequence (P33981 1-857): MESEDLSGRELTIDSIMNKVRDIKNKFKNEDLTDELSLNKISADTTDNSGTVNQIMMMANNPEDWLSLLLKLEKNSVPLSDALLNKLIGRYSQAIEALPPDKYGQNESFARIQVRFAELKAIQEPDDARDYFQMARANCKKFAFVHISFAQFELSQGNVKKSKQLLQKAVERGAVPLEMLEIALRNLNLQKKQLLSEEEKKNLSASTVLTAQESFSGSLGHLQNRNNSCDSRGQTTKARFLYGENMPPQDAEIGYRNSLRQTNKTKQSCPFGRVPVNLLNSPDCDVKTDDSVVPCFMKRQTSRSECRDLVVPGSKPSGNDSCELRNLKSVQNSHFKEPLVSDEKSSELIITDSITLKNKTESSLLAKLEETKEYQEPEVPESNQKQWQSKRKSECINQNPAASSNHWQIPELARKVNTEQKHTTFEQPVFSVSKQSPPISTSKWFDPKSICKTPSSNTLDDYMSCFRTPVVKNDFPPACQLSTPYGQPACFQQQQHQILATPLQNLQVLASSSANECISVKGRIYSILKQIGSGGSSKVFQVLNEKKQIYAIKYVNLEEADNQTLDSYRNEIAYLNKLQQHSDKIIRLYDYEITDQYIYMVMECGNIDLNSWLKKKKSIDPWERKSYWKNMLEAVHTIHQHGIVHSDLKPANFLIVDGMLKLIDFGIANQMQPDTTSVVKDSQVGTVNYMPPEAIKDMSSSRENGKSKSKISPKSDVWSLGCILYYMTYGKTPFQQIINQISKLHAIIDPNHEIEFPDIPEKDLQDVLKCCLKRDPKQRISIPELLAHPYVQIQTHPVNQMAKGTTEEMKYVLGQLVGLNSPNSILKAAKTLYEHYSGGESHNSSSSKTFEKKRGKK

For a further assay, the target named is T2, DRAK2 (Homo sapiens, UniProt O94768).
T2 sequence (O94768 1-372): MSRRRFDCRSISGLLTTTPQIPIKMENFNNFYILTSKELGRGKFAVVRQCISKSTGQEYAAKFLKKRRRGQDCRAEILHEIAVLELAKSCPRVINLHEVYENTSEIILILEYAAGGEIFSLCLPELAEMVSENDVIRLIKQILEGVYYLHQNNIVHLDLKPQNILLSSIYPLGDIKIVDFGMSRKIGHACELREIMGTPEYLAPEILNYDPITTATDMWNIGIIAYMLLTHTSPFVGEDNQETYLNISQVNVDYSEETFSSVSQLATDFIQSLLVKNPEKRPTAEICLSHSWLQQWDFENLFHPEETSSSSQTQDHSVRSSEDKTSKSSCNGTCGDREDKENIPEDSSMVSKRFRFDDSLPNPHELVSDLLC

For another assay, the target named is T3, DMPK1 (Homo sapiens, UniProt Q09013).
T3 sequence (Q09013 1-629): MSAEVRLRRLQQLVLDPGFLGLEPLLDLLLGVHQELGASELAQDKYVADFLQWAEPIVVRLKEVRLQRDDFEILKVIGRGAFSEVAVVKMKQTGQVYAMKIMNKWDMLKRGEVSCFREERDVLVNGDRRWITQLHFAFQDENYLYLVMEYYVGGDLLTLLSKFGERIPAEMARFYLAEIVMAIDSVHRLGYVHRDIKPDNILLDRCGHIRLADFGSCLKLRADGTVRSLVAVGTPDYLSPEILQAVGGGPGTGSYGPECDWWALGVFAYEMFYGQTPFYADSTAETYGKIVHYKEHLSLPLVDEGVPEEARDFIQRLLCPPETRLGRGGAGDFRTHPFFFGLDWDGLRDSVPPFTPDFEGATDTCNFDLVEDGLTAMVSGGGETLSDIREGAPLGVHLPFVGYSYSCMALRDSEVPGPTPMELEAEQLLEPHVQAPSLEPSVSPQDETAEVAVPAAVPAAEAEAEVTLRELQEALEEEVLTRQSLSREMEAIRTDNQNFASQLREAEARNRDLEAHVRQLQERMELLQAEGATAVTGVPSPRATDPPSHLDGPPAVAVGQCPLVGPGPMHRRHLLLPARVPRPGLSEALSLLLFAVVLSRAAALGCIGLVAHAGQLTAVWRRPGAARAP

A further assay concerns the target T4, MAP2K4 (Homo sapiens, UniProt P45985).
T4 sequence (P45985 1-399): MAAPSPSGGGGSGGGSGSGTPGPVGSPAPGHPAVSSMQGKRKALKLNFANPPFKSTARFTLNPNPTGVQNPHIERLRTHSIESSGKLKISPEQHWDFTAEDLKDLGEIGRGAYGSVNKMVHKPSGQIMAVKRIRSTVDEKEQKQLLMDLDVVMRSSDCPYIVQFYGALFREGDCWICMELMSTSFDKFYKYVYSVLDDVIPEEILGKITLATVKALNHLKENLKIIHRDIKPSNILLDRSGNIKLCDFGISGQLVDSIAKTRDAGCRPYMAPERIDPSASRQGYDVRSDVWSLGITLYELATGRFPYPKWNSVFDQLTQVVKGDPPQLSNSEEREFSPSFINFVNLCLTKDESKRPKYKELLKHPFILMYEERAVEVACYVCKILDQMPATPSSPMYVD

Chain of BRAF (P15056 whole entry): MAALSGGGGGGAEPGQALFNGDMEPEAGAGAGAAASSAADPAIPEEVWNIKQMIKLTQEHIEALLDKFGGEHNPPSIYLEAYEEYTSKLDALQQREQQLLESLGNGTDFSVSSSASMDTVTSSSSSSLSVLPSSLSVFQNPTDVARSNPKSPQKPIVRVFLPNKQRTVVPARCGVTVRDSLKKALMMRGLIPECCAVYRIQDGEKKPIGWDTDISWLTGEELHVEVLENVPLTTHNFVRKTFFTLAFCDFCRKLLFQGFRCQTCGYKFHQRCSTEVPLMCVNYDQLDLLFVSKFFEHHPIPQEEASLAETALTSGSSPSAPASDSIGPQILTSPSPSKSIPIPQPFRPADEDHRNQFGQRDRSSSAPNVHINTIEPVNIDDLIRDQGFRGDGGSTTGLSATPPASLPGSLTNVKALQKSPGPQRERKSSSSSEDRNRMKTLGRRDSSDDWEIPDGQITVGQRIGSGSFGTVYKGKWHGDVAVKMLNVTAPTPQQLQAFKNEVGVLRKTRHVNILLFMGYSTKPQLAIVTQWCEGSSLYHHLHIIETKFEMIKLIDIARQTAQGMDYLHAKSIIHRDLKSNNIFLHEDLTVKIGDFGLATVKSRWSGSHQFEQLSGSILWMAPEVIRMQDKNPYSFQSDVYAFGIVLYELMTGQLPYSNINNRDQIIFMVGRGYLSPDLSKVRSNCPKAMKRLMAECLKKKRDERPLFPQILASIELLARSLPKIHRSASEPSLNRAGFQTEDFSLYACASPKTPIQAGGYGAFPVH
Chain of AKT3 (Q9Y243 whole entry): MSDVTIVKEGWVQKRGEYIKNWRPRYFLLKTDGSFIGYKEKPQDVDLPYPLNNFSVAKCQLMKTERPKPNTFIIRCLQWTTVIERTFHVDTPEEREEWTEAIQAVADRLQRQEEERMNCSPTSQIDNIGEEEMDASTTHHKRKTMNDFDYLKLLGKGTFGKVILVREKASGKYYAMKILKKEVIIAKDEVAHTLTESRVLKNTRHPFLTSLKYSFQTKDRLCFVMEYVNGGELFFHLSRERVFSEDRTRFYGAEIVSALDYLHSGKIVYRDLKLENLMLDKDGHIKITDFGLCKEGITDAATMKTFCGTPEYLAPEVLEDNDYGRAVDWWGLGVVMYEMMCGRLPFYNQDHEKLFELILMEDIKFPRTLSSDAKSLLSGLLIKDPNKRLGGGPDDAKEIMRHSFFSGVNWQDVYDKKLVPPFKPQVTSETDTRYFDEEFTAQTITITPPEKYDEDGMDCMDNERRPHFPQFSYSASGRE
Chain of EphA5 (P54756 whole entry): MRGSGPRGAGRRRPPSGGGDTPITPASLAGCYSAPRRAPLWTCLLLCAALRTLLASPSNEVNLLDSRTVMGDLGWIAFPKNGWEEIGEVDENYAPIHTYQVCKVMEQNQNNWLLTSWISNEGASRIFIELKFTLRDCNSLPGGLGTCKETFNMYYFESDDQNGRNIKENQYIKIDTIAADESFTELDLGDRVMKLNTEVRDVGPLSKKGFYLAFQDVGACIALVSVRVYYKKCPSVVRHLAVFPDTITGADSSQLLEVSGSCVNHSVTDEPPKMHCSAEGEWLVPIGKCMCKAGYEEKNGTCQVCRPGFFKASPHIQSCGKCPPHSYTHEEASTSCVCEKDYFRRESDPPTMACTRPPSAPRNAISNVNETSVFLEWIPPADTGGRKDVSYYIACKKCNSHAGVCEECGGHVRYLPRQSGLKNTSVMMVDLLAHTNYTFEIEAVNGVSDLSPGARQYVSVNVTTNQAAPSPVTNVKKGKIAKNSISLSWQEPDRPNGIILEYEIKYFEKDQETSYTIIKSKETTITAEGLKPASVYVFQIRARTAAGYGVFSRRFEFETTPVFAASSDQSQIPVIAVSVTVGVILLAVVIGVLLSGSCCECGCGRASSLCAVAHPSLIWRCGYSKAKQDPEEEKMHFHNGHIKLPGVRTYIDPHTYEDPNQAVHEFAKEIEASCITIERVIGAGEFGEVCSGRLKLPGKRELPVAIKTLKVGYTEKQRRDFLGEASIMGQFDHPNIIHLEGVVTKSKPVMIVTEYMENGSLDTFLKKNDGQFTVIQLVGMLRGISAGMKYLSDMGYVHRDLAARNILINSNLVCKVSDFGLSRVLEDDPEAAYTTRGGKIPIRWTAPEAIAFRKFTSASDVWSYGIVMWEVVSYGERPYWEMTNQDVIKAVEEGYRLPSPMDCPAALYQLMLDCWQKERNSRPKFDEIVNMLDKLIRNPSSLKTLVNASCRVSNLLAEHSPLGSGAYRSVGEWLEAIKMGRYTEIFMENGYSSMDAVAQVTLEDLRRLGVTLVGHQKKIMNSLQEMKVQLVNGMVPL
Chain of CHK2 (O96017 whole entry): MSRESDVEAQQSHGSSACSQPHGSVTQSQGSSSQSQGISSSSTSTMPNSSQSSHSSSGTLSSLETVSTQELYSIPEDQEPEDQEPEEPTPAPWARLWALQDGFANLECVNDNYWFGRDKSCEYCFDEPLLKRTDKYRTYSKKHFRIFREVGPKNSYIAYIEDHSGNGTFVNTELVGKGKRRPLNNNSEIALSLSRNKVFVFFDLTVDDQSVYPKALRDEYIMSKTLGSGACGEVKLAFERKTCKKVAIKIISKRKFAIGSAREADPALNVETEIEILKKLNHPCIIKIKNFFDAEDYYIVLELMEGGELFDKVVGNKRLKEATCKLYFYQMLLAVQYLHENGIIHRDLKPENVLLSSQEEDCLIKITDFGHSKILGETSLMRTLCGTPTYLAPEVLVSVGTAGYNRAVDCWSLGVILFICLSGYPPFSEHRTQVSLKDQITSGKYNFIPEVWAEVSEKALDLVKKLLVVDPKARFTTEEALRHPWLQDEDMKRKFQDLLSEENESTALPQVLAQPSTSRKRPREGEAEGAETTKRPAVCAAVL
Chain of ABL1 (P00519 whole entry): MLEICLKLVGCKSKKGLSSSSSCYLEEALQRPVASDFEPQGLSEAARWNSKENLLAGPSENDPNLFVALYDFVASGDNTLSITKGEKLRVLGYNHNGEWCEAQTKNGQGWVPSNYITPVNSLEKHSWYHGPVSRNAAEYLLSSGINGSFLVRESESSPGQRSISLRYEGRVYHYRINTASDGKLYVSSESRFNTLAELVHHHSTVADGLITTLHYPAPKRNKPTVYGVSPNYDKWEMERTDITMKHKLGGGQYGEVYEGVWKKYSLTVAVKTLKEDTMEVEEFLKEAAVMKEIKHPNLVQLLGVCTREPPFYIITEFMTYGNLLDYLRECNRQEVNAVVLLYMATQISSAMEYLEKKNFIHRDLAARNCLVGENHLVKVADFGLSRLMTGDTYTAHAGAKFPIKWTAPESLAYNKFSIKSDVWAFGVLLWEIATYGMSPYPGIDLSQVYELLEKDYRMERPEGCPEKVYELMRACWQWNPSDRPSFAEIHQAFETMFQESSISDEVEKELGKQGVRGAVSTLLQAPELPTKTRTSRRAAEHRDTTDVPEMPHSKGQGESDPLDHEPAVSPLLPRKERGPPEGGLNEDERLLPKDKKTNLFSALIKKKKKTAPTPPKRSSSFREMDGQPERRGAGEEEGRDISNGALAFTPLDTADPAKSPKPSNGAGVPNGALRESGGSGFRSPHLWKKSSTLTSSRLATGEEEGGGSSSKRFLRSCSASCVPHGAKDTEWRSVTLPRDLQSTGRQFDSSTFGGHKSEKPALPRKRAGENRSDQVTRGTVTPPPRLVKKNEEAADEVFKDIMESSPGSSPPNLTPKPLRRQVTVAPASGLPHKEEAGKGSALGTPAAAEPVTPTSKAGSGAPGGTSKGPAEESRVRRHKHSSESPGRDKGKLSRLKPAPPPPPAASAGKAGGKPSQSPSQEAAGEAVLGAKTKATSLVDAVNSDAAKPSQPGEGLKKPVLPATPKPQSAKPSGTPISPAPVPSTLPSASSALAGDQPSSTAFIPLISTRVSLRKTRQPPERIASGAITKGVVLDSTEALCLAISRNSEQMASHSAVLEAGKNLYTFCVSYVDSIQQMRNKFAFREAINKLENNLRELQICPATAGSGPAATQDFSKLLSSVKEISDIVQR

Take `COc1cc(N2CCN(C)CC2)ccc1Nc1ncc2cc(-c3ccc(-c4cccc(C)n4)cc3Cl)c(=O)n(CCCCN)c2n1` [compound 36, 8-(4-Aminobutyl)-6-(2-chloro-4-(6-methylpyridin-2-yl)phenyl)-2-((2-methoxy-4-(4-methylpiperazin-1-yl)phenyl)amino)pyrido[2,3-d]pyrimidin-7(8H)-one]: the “dTm 36” value came to 5.0 °C on ABL1; 3.5 °C at EphA5; 0.8 °C at BRAF; 12.6 °C on CHK2; 4.3 °C at TTK; 4.3 °C at DRAK2. For the same molecule, the “dTm 36” value was -1.5 °C at DMPK1, 6.9 °C on MAP2K4, 0.6 °C on CDK2 and 1.0 °C on AKT3.

For the molecule `COc1ccc(O)c(Nc2ncc3cc(-c4ccc(-c5cccc(C)n5)cc4Cl)c(=O)n(CCCCN)c3n2)c1` [compound 34, 8-(4-Aminobutyl)-6-(2-chloro-4-(6-methylpyridin-2-yl)phenyl)-2-((2-hydroxy-5-methoxy-phenyl)amino)pyrido[2,3-d]pyrimidin-7(8H)-one], the “dTm 34” value at ABL1 is 5.2 °C; at EphA5, 3.2 °C; at BRAF, 1.1 °C; at CHK2, 6.4 °C; at TTK, 2.9 °C; on DRAK2, 7.5 °C. Further, the “dTm 34” value at DMPK1 was -0.8 °C; at MAP2K4, 8.0 °C; at CDK2 it was 1.4 °C; on AKT3, 1.3 °C.

In the case of `COc1cc(N2CCOCC2)ccc1Nc1ncc2cc(-c3ccc(-c4cccc(C)n4)cc3Cl)c(=O)n(CCCCN)c2n1` [compound 35, 8-(4-Aminobutyl)-6-(2-chloro-4-(6-methylpyridin-2-yl)phenyl)-2-((2-methoxy-4-morpholino-phenyl)amino)pyrido[2,3-d]pyrimidin-7(8H)-one], the “dTm 35” value came to 5.8 °C on ABL1; 4.2 °C at EphA5; 0.8 °C on BRAF; 13.0 °C at CHK2; 7.8 °C on TTK; 7.0 °C on DRAK2. In addition, the “dTm 35” value on DMPK1 was -2.1 °C; on MAP2K4 it was 7.6 °C; on CDK2, 1.0 °C; on AKT3, 1.0 °C.

Take `Cc1cccc(-c2ccc(-c3cc4cnc(Nc5ccc(F)c(CO)c5)nc4n(CCCCN)c3=O)c(Cl)c2)n1` [compound 33, 8-(4-Aminobutyl)-6-(2-chloro-4-(6-methylpyridin-2-yl)phenyl)-2-((4-fluoro-3-(hydroxymethyl)phenyl)amino)pyrido[2,3-d]pyrimidin-7(8H)-one]: the “dTm 33” value at ABL1 turned out to be 10.6 °C; at EphA5 it was 6.8 °C; at BRAF, 6.3 °C; on CHK2 it was 10.4 °C; at TTK it was 1.3 °C; on DRAK2 it was 10.5 °C. Besides, the “dTm 33” value at DMPK1 was -4.7 °C; at MAP2K4 it was 10.0 °C; on CDK2 it was 6.0 °C; on AKT3 it was 4.6 °C.

The record behind these values is publication doi:10.1101/2023.11.24.568596v1 (biorxiv, 2023).
